Laboratory results from ChEMBL document CHEMBL1201862, “PubChem BioAssay data set” (2004).
“And” between values parts separate entries of the source, which are not always exact repeats. Equal entries are not always repeated.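 Values below derive from 48-hour exposures of cells grown in 96-well plates, with endpoints linearly interpolated between the two concentrations bracketing the appropriate inhibition level. GI50 = concentration required for 50% inhibition of growth.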 The source made the active and inactive calls. Cut-off read from the data, not from the text of the source: active = GI50 up to about 1.1 µM and inactive = higher.

Experiments:
Experiment in all cases: inhibition of tumour cell growth, NCI panel, 48 h
K562 = test system: K562
ACHN = test system: ACHN
HCC 2998 = test system: HCC 2998
SF-295 = test system: SF-295
SK-OV-3 = test system: SK-OV-3
SNB-78 = test system: SNB-78
SK-MEL-2 = test system: SK-MEL-2
NCI-H226 = test system: NCI-H226
EKVX = test system: EKVX
M14 = test system: M14
SR = test system: SR
SNB-75 = test system: SNB-75
SF-268 = test system: SF-268
U-251 = test system: U-251
HCT-116 = test system: HCT-116
A498 = test system: A498
HCT-15 = test system: HCT-15
SK-MEL-5 = test system: SK-MEL-5
HOP-92 = test system: HOP-92
UACC-62 = test system: UACC-62
MOLT-4 = test system: MOLT-4
Malme-3M = test system: Malme-3M
TK-10 = test system: TK-10
IGROV-1 = test system: IGROV-1
A549 = test system: A549
RXF 631 = test system: RXF 631
SW-620 = test system: SW-620
DMS-114 = test system: DMS-114
OVCAR-5 = test system: OVCAR-5
HL-60 = test system: HL-60
XF498 = test system: XF498
HOP-18 = test system: HOP-18
786-0 = test system: 786-0
RXF 393 = test system: RXF 393
UO-31 = test system: UO-31
LXFL 529 = test system: LXFL 529
DMS-273 = test system: DMS-273
HT-29 = test system: HT-29
OVCAR-3 = test system: OVCAR-3
NCI-H23 = test system: NCI-H23
SF-539 = test system: SF-539
SNB-19 = test system: SNB-19
M19-MEL = test system: M19-MEL
LOX IMVI = test system: LOX IMVI
KM12 = test system: KM12
HOP-62 = test system: HOP-62
CAKI-1 = test system: CAKI-1
NCI-H460 = test system: NCI-H460
SK-MEL-28 = test system: SK-MEL-28
CCRF-CEM = test system: CCRF-CEM
OVCAR-4 = test system: OVCAR-4
UACC-257 = test system: UACC-257
OVCAR-8 = test system: OVCAR-8
DLD-1 = test system: DLD-1
KM-20L2 = test system: KM-20L2
COLO 205 = test system: COLO 205
SN12C = test system: SN12C
NCI-H522 = test system: NCI-H522

For `C[Si](C)(C)/C(Br)=C\CCN1C(=O)CCC1=O`, the GI50 (K562) was > 100 µM (inactive), the GI50 (ACHN) was > 100 µM (inactive) and the GI50 (HCC 2998) was > 100 µM (inactive). The GI50 (SF-295) was > 100 µM (inactive), the GI50 (SK-OV-3) was > 100 µM (inactive) and the GI50 (SNB-78) was > 100 µM (inactive). The GI50 (SK-MEL-2) was > 100 µM (inactive), the GI50 (NCI-H226) was > 100 µM (inactive) and the GI50 (EKVX) was > 100 µM (inactive). The GI50 (M14) was > 100 µM (inactive), the GI50 (SR) was > 100 µM (inactive) and the GI50 (SNB-75) was > 100 µM (inactive). The GI50 (SF-268) was > 100 µM (inactive), the GI50 (U-251) was > 100 µM (inactive) and the GI50 (HCT-116) was > 100 µM (inactive). The GI50 (A498) was > 100 µM (inactive), the GI50 (HCT-15) was > 100 µM and the GI50 (SK-MEL-5) was > 100 µM (inactive). The GI50 (HOP-92) was > 100 µM (inactive), the GI50 (UACC-62) was > 100 µM (inactive) and the GI50 (MOLT-4) was > 100 µM (inactive). For the same compound, the GI50 (Malme-3M) was > 100 µM (inactive), the GI50 (TK-10) was > 100 µM (inactive) and the GI50 (IGROV-1) was > 100 µM (inactive). The GI50 (A549) was > 100 µM (inactive), the GI50 (RXF 631) was > 100 µM (inactive) and the GI50 (SW-620) was > 100 µM (inactive). For the same compound, the GI50 (DMS-114) was > 35.2 µM (inactive), the GI50 (OVCAR-5) was > 100 µM (inactive) and the GI50 (HL-60) was > 100 µM (inactive). For the same compound, the GI50 (XF498) was > 100 µM (inactive), the GI50 (HOP-18) was > 100 µM (inactive) and the GI50 (786-0) was > 100 µM (inactive). For the same compound, the GI50 (RXF 393) was > 100 µM (inactive), the GI50 (UO-31) was > 100 µM (inactive) and the GI50 (LXFL 529) was > 100 µM (inactive). The GI50 (DMS-273) was > 100 µM (inactive), the GI50 (HT-29) was > 100 µM (inactive) and the GI50 (OVCAR-3) was > 100 µM (inactive). The GI50 (NCI-H23) was > 100 µM (inactive), the GI50 (SF-539) was > 100 µM (inactive) and the GI50 (SNB-19) was > 100 µM (inactive). The GI50 (M19-MEL) was > 100 µM (inactive), the GI50 (LOX IMVI) was > 100 µM (inactive) and the GI50 (KM12) was > 100 µM (inactive). The GI50 (HOP-62) was > 100 µM (inactive), the GI50 (CAKI-1) was > 100 µM (inactive) and the GI50 (NCI-H460) was > 100 µM (inactive). For the same compound, the GI50 (SK-MEL-28) was > 100 µM (inactive), the GI50 (CCRF-CEM) was > 100 µM (inactive) and the GI50 (OVCAR-4) was > 100 µM (inactive). For the same compound, the GI50 (UACC-257) was > 100 µM (inactive), the GI50 (OVCAR-8) was > 100 µM (inactive) and the GI50 (DLD-1) was > 100 µM (inactive). The GI50 (KM-20L2) was > 100 µM (inactive), the GI50 (COLO 205) was > 100 µM (inactive) and the GI50 (SN12C) was > 100 µM (inactive).
`COC1OC(COC(C)=O)C(OC(C)=O)C(OC(C)=O)C1NC(=O)N(CCCl)N=O` (centres undefined) was tested, and the GI50 (K562) was 65 µM (inactive), the GI50 (ACHN) was > 100 µM (inactive) and the GI50 (HCC 2998) was > 100 µM (inactive). For the same compound, the GI50 (SF-295) was 39.1 µM (inactive) and 24.2 µM (inactive), the GI50 (SK-OV-3) was > 100 µM (inactive) and the GI50 (SNB-78) was > 100 µM (inactive). The GI50 (NCI-H226) was > 100 µM (inactive), the GI50 (EKVX) was > 100 µM (inactive) and the GI50 (M14) was > 100 µM (inactive). For the same compound, the GI50 (SNB-75) was 47.1 µM (inactive) and 34.4 µM (inactive), the GI50 (SF-268) was 26.8 µM (inactive) and 20.3 µM (inactive) and the GI50 (HCT-116) was > 100 µM (inactive). The GI50 (A498) was > 100 µM (inactive), the GI50 (SK-MEL-5) was > 100 µM (inactive) and the GI50 (UACC-62) was 26.2 µM (inactive) and 25.6 µM (inactive). The GI50 (Malme-3M) was > 100 µM (inactive), the GI50 (TK-10) was > 100 µM (inactive) and the GI50 (IGROV-1) was > 100 µM (inactive). The GI50 (A549) was > 100 µM (inactive) and 82.4 µM (inactive), the GI50 (RXF 631) was > 100 µM (inactive) and the GI50 (SW-620) was > 100 µM (inactive). The GI50 (DMS-114) was > 100 µM (inactive), the GI50 (OVCAR-5) was > 100 µM (inactive) and the GI50 (NCI-H522) was 24.1 µM (inactive) and 45.9 µM (inactive). For the same compound, the GI50 (HL-60) was 30.8 µM (inactive) and 16.1 µM (inactive), the GI50 (XF498) was > 100 µM (inactive) and the GI50 (HOP-18) was > 100 µM (inactive). The GI50 (786-0) was 54.6 µM (inactive) and 63.4 µM (inactive), the GI50 (RXF 393) was > 100 µM (inactive) and the GI50 (LXFL 529) was > 100 µM (inactive). The GI50 (DMS-273) was > 100 µM (inactive), the GI50 (HT-29) was > 100 µM (inactive) and the GI50 (OVCAR-3) was > 100 µM (inactive). The GI50 (NCI-H23) was > 100 µM (inactive), the GI50 (SNB-19) was > 100 µM (inactive) and 69.7 µM (inactive) and the GI50 (M19-MEL) was > 100 µM (inactive). The GI50 (LOX IMVI) was 61.4 µM (inactive) and 47.3 µM (inactive), the GI50 (KM12) was > 100 µM (inactive) and the GI50 (CAKI-1) was > 100 µM (inactive). The GI50 (NCI-H460) was 63 µM (inactive) and 44.6 µM (inactive), the GI50 (SK-MEL-28) was > 100 µM (inactive) and the GI50 (OVCAR-4) was > 100 µM (inactive). For the same compound, the GI50 (UACC-257) was > 100 µM (inactive), the GI50 (OVCAR-8) was > 100 µM (inactive) and the GI50 (DLD-1) was > 100 µM (inactive). For the same compound, the GI50 (KM-20L2) was > 100 µM (inactive), the GI50 (COLO 205) was > 100 µM (inactive) and the GI50 (SN12C) was > 100 µM (inactive).
For `COC(=O)CCC(NC(=S)N/N=C(\C)c1ccco1)C(=O)OC` (centres undefined), the GI50 (K562) was > 100 µM (inactive), the GI50 (ACHN) was > 100 µM (inactive) and the GI50 (HCC 2998) was > 100 µM (inactive). For the same compound, the GI50 (SF-295) was > 100 µM (inactive), the GI50 (SK-OV-3) was > 100 µM (inactive) and the GI50 (SNB-78) was > 100 µM (inactive). For the same compound, the GI50 (SK-MEL-2) was > 100 µM (inactive), the GI50 (NCI-H226) was > 100 µM (inactive) and the GI50 (EKVX) was > 100 µM (inactive). The GI50 (M14) was > 100 µM (inactive), the GI50 (SNB-75) was > 100 µM (inactive) and the GI50 (SF-268) was > 100 µM (inactive). For the same compound, the GI50 (U-251) was > 100 µM (inactive), the GI50 (HCT-116) was > 100 µM (inactive) and the GI50 (A498) was > 100 µM (inactive). For the same compound, the GI50 (HCT-15) was > 100 µM, the GI50 (SK-MEL-5) was > 100 µM (inactive) and the GI50 (UACC-62) was > 100 µM (inactive). The GI50 (Malme-3M) was > 100 µM (inactive), the GI50 (TK-10) was > 100 µM (inactive) and the GI50 (IGROV-1) was > 100 µM (inactive). For the same compound, the GI50 (A549) was > 100 µM (inactive), the GI50 (RXF 631) was > 100 µM (inactive) and the GI50 (SW-620) was > 100 µM (inactive). For the same compound, the GI50 (DMS-114) was > 100 µM (inactive), the GI50 (OVCAR-5) was > 100 µM (inactive) and the GI50 (NCI-H522) was > 100 µM (inactive). For the same compound, the GI50 (HL-60) was > 100 µM (inactive), the GI50 (XF498) was > 100 µM (inactive) and the GI50 (HOP-18) was > 100 µM (inactive). The GI50 (786-0) was > 100 µM (inactive), the GI50 (RXF 393) was > 100 µM (inactive) and the GI50 (UO-31) was > 100 µM (inactive). For the same compound, the GI50 (LXFL 529) was > 100 µM (inactive), the GI50 (DMS-273) was > 100 µM (inactive) and the GI50 (HT-29) was > 100 µM (inactive). The GI50 (OVCAR-3) was > 100 µM (inactive), the GI50 (NCI-H23) was > 100 µM (inactive) and the GI50 (SF-539) was > 100 µM (inactive). The GI50 (SNB-19) was > 100 µM (inactive), the GI50 (M19-MEL) was > 100 µM (inactive) and the GI50 (LOX IMVI) was > 100 µM (inactive). The GI50 (KM12) was > 100 µM (inactive), the GI50 (HOP-62) was > 100 µM (inactive) and the GI50 (NCI-H460) was > 100 µM (inactive). The GI50 (SK-MEL-28) was > 100 µM (inactive), the GI50 (CCRF-CEM) was > 100 µM (inactive) and the GI50 (OVCAR-4) was > 100 µM (inactive). For the same compound, the GI50 (UACC-257) was > 100 µM (inactive), the GI50 (OVCAR-8) was > 100 µM (inactive) and the GI50 (DLD-1) was > 100 µM (inactive). The GI50 (KM-20L2) was > 100 µM (inactive), the GI50 (COLO 205) was > 100 µM (inactive) and the GI50 (SN12C) was > 100 µM (inactive).
